US6806230B1, “Pyrimidine derivatives and herbicides containing them” (Kumiai Chemical Industry Co., Ltd., priority 1999, dated 2004)

Columns and labels:
Type in all cases: in vivo
barnyard grass (Ec) [1] = experiment: Test Example 3: herbicidal effects by foliage treatment in upland field; design: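 0-5 growth inhibition grade; 5 = over 90%; 4 = 70-90%; 3 = 50-70%; 2 = 30-50%; 1 = 10-30%; 0 = under 10%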; settings: dose 100 g active ingredient per 10 ares, examined on the 14th day after treatment
Procedure, shortened: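 Barnyard grass and green foxtail were grown in upland soil for 2 weeks in a greenhouse. A water-diluted wettable powder was sprayed over the foliage at 100 l per 10 ares, giving 100 g active ingredient per 10 ares. Herbicidal effect was scored on day 14 after treatment.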

monochoria (Mo) [2] = experiment: Test Example 1: herbicidal effects by flooded paddy field treatment; design: herbicidal effects, Mo (monochoria):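 0-5 growth inhibition grade; 5 = over 90%; 4 = 70-90%; 3 = 50-70%; 2 = 30-50%; 1 = 10-30%; 0 = under 10%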; settings: dose 100 g active ingredient per 10 ares, examined on the 21st day after treatment, standards of Table 44
Procedure, shortened: (§1)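 Seeds sown in puddled paddy soil and flooded to 3 cm. Next day, a water-diluted wettable powder was dripped onto the water surface at 100 g active ingredient per 10 ares. Plants were grown in a greenhouse, and herbicidal effect was scored against a rating standard 21 days after treatment.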

barnyard grass (Ec) [3] = experiment: Test Example 2: herbicidal effects by upland soil treatment; design: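 0-5 growth inhibition grade; 5 = over 90%; 4 = 70-90%; 3 = 50-70%; 2 = 30-50%; 1 = 10-30%; 0 = under 10%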; settings: dose 100 g active ingredient per 10 ares, examined on the 21st day after treatment
Procedure, shortened: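 Pre-emergence test: barnyard grass and green foxtail sown in upland soil, then soil surface sprayed with wettable-powder formulation at 100 g active ingredient per 10 ares (100 l per 10 ares). Grown in greenhouse; herbicidal effect scored on a rating scale 21 days after treatment.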

rice (Or) = experiment: Test Example 4: selectivity for a crop plant by flooded paddy field treatment; design: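 0-5 phytotoxicity grade; 5 = over 90%; 4 = 70-90%; 3 = 50-70%; 2 = 30-50%; 1 = 10-30%; 0 = under 10%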; settings: rice transplanted at second leaf stage, dose 25 gai/10a, 21st day after treatment, index per Table 44
Procedure, shortened: (§2)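 Paddled paddy soil in pots sown with barnyard grass and monochoria, with second-leaf-stage rice transplanted, under 3 cm of water. Next day a diluted wettable powder was dripped onto the water at 25 g active ingredient per 10 ares; effects scored on a rating scale 21 days later in a greenhouse.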

barnyard grass (Eo) [4] = experiment: as above; design: scale not given here; settings: barnyard grass, dose 25 gai/10a, 21st day after treatment, index per Table 44
Procedure, shortened: as §2

monochoria (Mo) [5] = experiment: as above; design: scale not given here; settings: monochoria, dose 25 gai/10a, 21st day after treatment, index per Table 44
Procedure, shortened: as §2

barnyard grass (Eo) [6] = experiment: Test Example 1: herbicidal effects by flooded paddy field treatment; design: herbicidal effects, Eo (barnyard grass):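 0-5 growth inhibition grade; 5 = over 90%; 4 = 70-90%; 3 = 50-70%; 2 = 30-50%; 1 = 10-30%; 0 = under 10%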; settings: dose 100 g active ingredient per 10 ares, examined on the 21st day after treatment, standards of Table 44
Procedure, shortened: as §1

Row | Compound | Ec (herbicidal effects, index) (barnyard grass (Ec) [1]) | herbicidal effects, Mo (monochoria) (monochoria (Mo) [2]) | Ec (herbicidal effects, index) (barnyard grass (Ec) [3]) | Or (herbicidal effect index on crop) (rice (Or)) | Eo (herbicidal effect index) (barnyard grass (Eo) [4]) | Mo (herbicidal effect index) (monochoria (Mo) [5]) | herbicidal effects, Eo (barnyard grass) (barnyard grass (Eo) [6])
1 | CCC(C)C(c1cncnc1C(F)(F)F)N(C)C(=O)Cc1ccc(Cl)s1 (mixture of isomers) [2-57] | 5 | 5 | 5 | 1 | 5 | 5 | 5
2 | CCC(C)C(c1cncnc1C(F)(F)F)N(C)C(=O)Cc1ccc(Cl)cc1F (mixture of isomers) [Compound 1-251] | 4 | 5 | 5 | 1 | 5 | 5 | 5
3 | CON(C(=O)Cc1ccc(F)cc1)C(c1cncnc1C(F)(F)F)C(C)C (racemic) [1-333] | 4 | 5 | 5 | 1 | 5 | 5 | 5
4 | CC(C)CC(c1cncnc1C(F)(F)F)N(C)C(=O)Cc1cccc(F)c1 (racemic) [1-334] | 4 | 5 | 5 | 0 | 5 | 5 | 5
5 | COc1ncncc1C(C(C)C)N(C)C(=O)Cc1ccccc1 (racemic) [1-401] | 5 | 5 | 5 | 1 | 5 | 5 | 5
6 | COc1ncncc1C(C(C)C)N(C)C(=O)Cc1ccc(C)cc1 (racemic) [1-404] | 5 | 5 | 5 | 1 | 5 | 5 | 5
7 | Cc1ccc(CC(=O)N(C)C(c2cncnc2C(F)(F)F)C2(C)CC2)cc1 (racemic) [1-412] | 4 | 5 | 5 | 1 | 5 | 5 | 5
8 | CC(C)C(c1cncnc1C(F)(F)F)N(C)C(=O)Cc1ccc(F)c(F)c1F (racemic) [1-417] | 4 | 5 | 5 | 1 | 5 | 5 | 5
9 | CCC(c1cncnc1C(C)C)N(C)C(=O)Cc1ccccc1 (racemic) [1-436] | 4 | 5 | 5 | 1 | 5 | 5 | 5
10 | CN(C(=O)Cc1ccc(F)cc1)C(c1ccsc1)c1cncnc1C(F)(F)F (racemic) [1-441] | 4 | 5 | 5 | 1 | 5 | 5 | 5
11 | CN(C(=O)Cc1ccc(Cl)cc1)C(c1ccsc1)c1cncnc1C(F)(F)F (racemic) [1-442] | 4 | 5 | 5 | 1 | 5 | 5 | 5
12 | CCCC(c1cncnc1C(C)C)N(C)C(=O)Cc1ccc(C)cc1 (racemic) [1-452] | 4 | 5 | 5 | 0 | 5 | 5 | 5
13 | CCOC(OCC)C(c1cncnc1C(C)C)N(C)C(=O)Cc1ccccc1 (racemic) [1-454] | 4 | 5 | 4 | 1 | 5 | 5 | 5
14 | CCOC(OCC)C(c1cncnc1C(C)C)N(C)C(=O)Cc1ccc(F)cc1 (racemic) [1-455] | 4 | 5 | 5 | 1 | 5 | 5 | 5
15 | CC(C)C(c1cncnc1C(F)(F)F)N(C)C(=O)N(C)c1ccc(C#N)cc1 (racemic) [1-459] | 4 | 5 | 5 | 1 | 5 | 5 | 5
16 | CC(C)C(c1cncnc1C(F)(F)F)N(C)C(=O)NCc1ccccc1 (racemic) [1-461] | 4 | 5 | 5 | 1 | 5 | 5 | 5
17 | CN(C(=O)Cc1ccc(F)cc1)C(c1cncnc1C1(C)CC1)C1(C)CC1 (racemic) [1-473] | 5 | 5 | 5 | 1 | 5 | 5 | 5
18 | COc1ccc(C(c2cncnc2C(F)(F)F)N(C)C(=O)Cc2ccccc2)cc1 (racemic) [1-484] | 5 | 5 | 5 | 1 | 5 | 5 | 5
19 | COc1ccccc1C(c1cncnc1C(F)(F)F)N(C)C(=O)Cc1ccc(F)cc1 (racemic) [1-489] | 4 | 5 | 5 | 1 | 5 | 5 | 5
